In ChEMBL document CHEMBL4043273, “Phenotypic Optimization of Urea-Thiophene Carboxamides To Yield Potent, Well Tolerated, and Orally Active Protective Agents against Aminoglycoside-Induced Hearing Loss” (J Med Chem, 2018):

Species on record: Danio rerio
Assay: Protection against neomycin-induced hair cell death in AB zebra fish larvae assessed as increase in hair cell survival preincubated for 1 hr followed by neomycin challenge for 1 hr by DASPEI staining-based epifluorescence dissecting microscopic method
Format: functional

With `O=C(Cc1ccc(Cl)cc1)Nc1nc(C(=O)N2CCCCC2)cs1` the EC50 was > 25 µM.

For `CN1[C@H]2CC[C@@H]1c1sc(NC(=O)Nc3ccc(Cl)cc3)c(C(N)=O)c1C2` (single isomer, unassigned), the EC50 was 0.27 µM.

With `CCN1CCc2c(sc(NC(=O)Nc3ccc(Cl)cc3)c2C(=O)c2nnco2)C1` the EC50 was > 25 µM.

Work on `CC(C)(C)OC(=O)CCC[N+]1(C)CCc2c(sc(NC(=O)Nc3ccc(Cl)cc3)c2C(N)=O)C1` (centres undefined) yielded an EC50 of 0.25 µM.

With `CCN1Cc2sc(NC(=O)Nc3ccc(Cl)cc3)c(C(N)=O)c2C1` the EC50 was 4.34 µM.

`CC(C)(C)OC(=O)CCN1CCc2c(sc(NC(=O)Nc3ccc(Cl)cc3)c2C(N)=O)C1` was tested, and the EC50 was 1.1 µM.

Compound `CCN1CCc2sc(NC(=O)Nc3ccc(Cl)cc3)c(C(N)=O)c2C1` has an EC50 of 4.61 µM.

Compound `NC(=O)c1c(NC(=O)Nc2ccc(Cl)cc2)sc2c1CC1CCC2N1` (centres undefined) has an EC50 of 0.21 µM.

Compound `C[N+]1(CC2CCC2)CCc2c(sc(NC(=O)Nc3ccc(Cl)cc3)c2C(N)=O)C1` (centres undefined) has an EC50 of 0.21 µM.

`CCCN1CCc2c(sc(NC(=O)Nc3ccc(Cl)cc3)c2C(N)=O)C1` was tested, and the EC50 was 3.5 µM.

`CC(C)[N+]1(C)CCc2c(sc(NC(=O)Nc3ccc(Cl)cc3)c2C(N)=O)C1` (centres undefined) was tested, and the EC50 was 0.96 µM.

With `CCN1CCc2c(sc(NC(=O)Nc3cscc3C(=O)OC)c2C(N)=O)C1` the EC50 was > 25 µM.

Compound `COCCC[N+]1(C)CCc2c(sc(NC(=O)Nc3ccc(Cl)cc3)c2C(N)=O)C1` (centres undefined) has an EC50 of 0.48 µM.

`CCN1CCc2c(sc(NC(=O)Nc3ccc(Cl)cc3)c2C(=O)NCCN2CCOCC2)C1` showed an EC50 of 9.38 µM.

In the case of `NC(=O)c1c(NC(=O)Nc2ccc(Cl)cc2)sc2c1CCNC2`, the EC50 is reported as 3.26 µM.

`CC(C)(C)OC(=O)CCCCCN1CCc2c(sc(NC(=O)Nc3ccc(Cl)cc3)c2C(N)=O)C1` showed an EC50 of 0.62 µM.

Compound `CC(C)(C)CN1CCc2c(sc(NC(=O)Nc3ccc(Cl)cc3)c2C(N)=O)C1` has an EC50 of 5.56 µM.

Work on `CCN1CCc2c(sc(NC(=O)Nc3ccc(I)cc3)c2C(N)=O)C1` yielded an EC50 of 1.62 µM.

Compound `CC[N+]1(CC)CCc2c(sc(NC(=O)Nc3ccc(Cl)cc3)c2C(N)=O)C1` has an EC50 of 0.45 µM.

With `NC(=O)c1c(NC(=O)Nc2ccc(Cl)cc2)sc2c1CCN(CCCNC(=O)CCc1cccnc1)C2` the EC50 was 0.47 µM.

`NC(=O)c1c(NC(=O)Nc2ccc(Cl)cc2)sc2c1[C@@H]1CC[C@H](C2)N1` was tested, and the EC50 was 0.03 µM.

For `NC(=O)c1c(NC(=O)Nc2ccc(Cl)cc2)sc2c1CCN(CC1CCCCC1)C2`, the EC50 was 1.89 µM.

For `CCC1CCc2c(sc(NC(=O)Nc3ccc(Cl)cc3)c2C(N)=O)C1` (centres undefined), the EC50 was > 25 µM.

In the case of `CCN1CCc2c(sc(NC(=O)Nc3ccc(Cl)cc3)c2C(=O)N2CCOCC2)C1`, the EC50 is reported as > 25 µM.

`CCN1CCc2c(ccc(NC(=O)Nc3ccc(Cl)cc3)c2C(N)=O)C1` was tested, and the EC50 was > 25 µM.

`CCN1CCc2c(sc(NC(=O)CN3CCCCC3)c2C(N)=O)C1` was tested, and the EC50 was > 25 µM.

Compound `CCN1CCc2c(sc(NC(=O)Nc3cccc(C)c3)c2C(N)=O)C1` has an EC50 of 13 µM.

Compound `NC(=O)c1c(NC(=O)Nc2ccc(Cl)cc2)sc2c1C1CCC(C2)N1` (racemic) has an EC50 of 0.11 µM.

`C[N+](C)(C)C1CCc2c(sc(NC(=O)Nc3ccc(Cl)cc3)c2C(N)=O)C1` (centres undefined) gave an EC50 of 5.87 µM.

`CCN1CCc2c(sc(NC(=O)Nc3cccc(Cl)c3Cl)c2C(N)=O)C1` was tested, and the EC50 was 17.4 µM.

Work on `CN1C2CCC1c1c(sc(NC(=O)Nc3ccc(Cl)cc3)c1C(N)=O)C2` (racemic) yielded an EC50 of 0.36 µM.

In the case of `CN1[C@H]2CC[C@@H]1c1c(sc(NC(=O)Nc3ccc(Cl)cc3)c1C(N)=O)C2`, the EC50 is reported as > 2.25 µM.

`NC(=O)c1c(NC(=O)Nc2ccc(Cl)cc2)sc2c1C[C@@H]1CC[C@H]2N1` showed an EC50 of 0.27 µM.

In the case of `CCN1CCc2c(sc(NC(=O)Nc3ccc(Cl)cc3)c2C(=O)c2nc(C)no2)C1`, the EC50 is reported as > 25 µM.

`CCN1CCc2c(sc(NC=O)c2C(N)=O)C1` was tested, and the EC50 was > 25 µM.

For `CCN1CCc2c(sc(NC(=O)C3(c4ccc(Cl)cc4)CC3)c2C(N)=O)C1`, the EC50 was > 25 µM.

For `NC(=O)c1c(NC(=O)Nc2ccc(Cl)cc2)sc2c1CCN(C1CCOCC1)C2`, the EC50 was 2.83 µM.

In the case of `CCN1CCc2c(sc(NC(=O)Nc3ccc(Cl)cc3)c2C(=O)NC)C1`, the EC50 is reported as > 25 µM.

Compound `CCN1CCc2sc(NC(=O)Nc3ccc(Cl)cc3)c(C(N)=O)c2CC1` has an EC50 of 5.8 µM.

Compound `NC(=O)c1c(NC(=O)Nc2ccc(Cl)cc2)sc2c1C[C@H]1CC[C@@H]2N1` has an EC50 of 3.92 µM.

`C[N+]1(CC2CC2)CCc2c(sc(NC(=O)Nc3ccc(Cl)cc3)c2C(N)=O)C1` (centres undefined) showed an EC50 of 0.36 µM.

In the case of `CCN1CCc2c(sc(NC(=O)Nc3ccc(Cl)cc3)c2C(=O)NC2COC2)C1`, the EC50 is reported as > 25 µM.

In the case of `CC(C)(C)OC(=O)N1CCc2c(sc(NC(=O)Nc3ccc(Cl)cc3)c2C(N)=O)C1`, the EC50 is reported as > 25 µM.

For `NC(=O)c1c(NC(=O)Nc2ccc(Cl)cc2)sc2c1[C@H]1CC[C@@H](C2)N1`, the EC50 was 5 µM.

Compound `CC(C)(C)C[N+]1(C)CCc2c(sc(NC(=O)Nc3ccc(Cl)cc3)c2C(N)=O)C1` (centres undefined) has an EC50 of 0.29 µM.

`CCN1CCc2c(sc(NC(=O)Nc3ccc(-c4ccccc4)cc3)c2C(N)=O)C1` gave an EC50 of 3.39 µM.

In the case of `CCN1CCc2c(sc(NC(=O)Nc3ccc(Cl)cc3)c2C(=O)NCCO)C1`, the EC50 is reported as 9.4 µM.

In the case of `CCN1CCc2c(sc(NC(=O)C3(C(=O)Nc4ccc(Cl)cc4)CC3)c2C(N)=O)C1`, the EC50 is reported as > 25 µM.

`CN1C2CCC1c1sc(NC(=O)Nc3ccc(Cl)cc3)c(C(N)=O)c1C2` (centres undefined) was tested, and the EC50 was 0.62 µM.

`CC(C)C[N+]1(C)CCc2c(sc(NC(=O)Nc3ccc(Cl)cc3)c2C(N)=O)C1` (centres undefined) gave an EC50 of 0.38 µM.

Compound `CCN1CCc2c(sc(NC(=O)Nc3cccc(C#N)c3)c2C(N)=O)C1` has an EC50 of 10.3 µM.

`CCN1CCc2c(sc(N)c2C(N)=O)C1` was tested, and the EC50 was > 25 µM.

`CCN1CCc2c(sc(NC(=S)Nc3ccc(Cl)cc3)c2C(N)=O)C1` was tested, and the EC50 was 6.57 µM.

With `CCCCc1nnc(NC(=O)Nc2ccc(Cl)cc2)s1` the EC50 was > 25 µM.

For `CCN1CCCc2c(sc(NC(=O)Nc3ccc(Cl)cc3)c2C(N)=O)C1`, the EC50 was 3.98 µM.

`CCN1CCc2c(sc(NC(=O)Nc3ccc(Br)cc3)c2C(N)=O)C1` showed an EC50 of 3.13 µM.

`CCN1CCc2c(sc(NC(=O)Nc3ccc(C(F)(F)F)cc3)c2C(N)=O)C1` was tested, and the EC50 was 2.91 µM.

`CCN1CCc2c(sc(NC(=O)NCCN3CCOCC3)c2C(N)=O)C1` was tested, and the EC50 was > 25 µM.

With `CN1[C@@H]2CC[C@H]1c1sc(NC(=O)Nc3ccc(Cl)cc3)c(C(N)=O)c1C2` (single isomer, unassigned) the EC50 was 7.21 µM.

With `CCN1CCc2c(sc(NC(=O)Nc3ccc(Cl)cc3)c2C(=O)OC)C1` the EC50 was > 25 µM.

In the case of `C[N+]1(CC2CCCC2)CCc2c(sc(NC(=O)Nc3ccc(Cl)cc3)c2C(N)=O)C1` (centres undefined), the EC50 is reported as 0.2 µM.

For `CCN1CCc2c(sc(NC(=O)Nc3ccc(Cl)cc3)c2C#N)C1`, the EC50 was > 25 µM.

`CCN1CCc2c(sc(NC(=O)Nc3ccc(Cl)cc3Cl)c2C(N)=O)C1` was tested, and the EC50 was 11.5 µM.

For `CCN1CCc2c(sc(NC(=O)NCc3cccc(Cl)c3)c2C(N)=O)C1`, the EC50 was > 25 µM.

With `CC1CCc2nc(NC(=O)Nc3ccc(Cl)cc3)sc2C1` (centres undefined) the EC50 was > 25 µM.

In the case of `Cc1c(CN2CCOCC2)sc(NC(=O)Nc2ccc(Cl)cc2)c1C(N)=O`, the EC50 is reported as 6.92 µM.

Compound `COCCCN1CCc2c(sc(NC(=O)Nc3ccc(Cl)cc3)c2C(N)=O)C1` has an EC50 of 2.4 µM.

`CCN1CCc2c(sc(NC(=O)Nc3ccc4ccccc4c3)c2C(N)=O)C1` was tested, and the EC50 was 1.78 µM.

With `CCC(C)(C)C1CCc2c(sc(NC(=O)Nc3ccc(Cl)cc3)c2C(N)=O)C1` (centres undefined) the EC50 was > 25 µM.

`CC(C)(C)OC(=O)CCCN1CCc2c(sc(NC(=O)Nc3ccc(Cl)cc3)c2C(N)=O)C1` showed an EC50 of 0.56 µM.

In the case of `CC(C)(C)OC(=O)CCCCC[N+]1(C)CCc2c(sc(NC(=O)Nc3ccc(Cl)cc3)c2C(N)=O)C1` (centres undefined), the EC50 is reported as 0.11 µM.

With `CCN1CCc2c(sc(NC(=O)[C@@H]3CCCN3)c2C(N)=O)C1` the EC50 was > 25 µM.

`NC(=O)c1c(NC(=O)Nc2ccc(Cl)cc2)sc2c1CCCC2` was tested, and the EC50 was > 25 µM.

`CCN1CCc2c(sc(NC(=O)c3ccccc3)c2C(N)=O)C1` was tested, and the EC50 was > 25 µM.
